Experiments:
Type in all cases: cell-based
SMARCA2 [1] = biological target: T1, SMARCA2 (Homo sapiens, UniProt P51531); assay: MSD SMARCA2 degradation in A549 cell line; details: 24 h; for Dmax: A549, A549 cells; for DC50: A549 cells, read-out: SMARCA2 MSD A549 degradation 24 h: Average external-Abs DC50
How it was run: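 A549 cells treated 24 h with compound at final 0.152-1000 nM (3-fold series, DMSO control). Lysates analyzed by MSD immunoassay using anti-SMARCA2/BRM detection and SULFO-TAG secondary antibodies; maximal degradation (Dmax %) reported as letter bins.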

SMARCA4 = biological target: T2, SMARCA4 (Homo sapiens, UniProt P51532); assay: SMARCA4 Western blot MV4-11 degradation; details: 24 h; for Dmax: MV4-11, MV4-11 cells, read-out: SMARCA4 WB MV411 degradation 24 h: Average Dmax %; for DC50: MV4-11 cells, read-out: SMARCA4 WB MV411 degradation 24 h: Average external-Abs DC50
T2 construct: SMARCA2 and SMARCA4 protein degradation in MV4-11 cells; endogenous in cells; host or cells: MV4-11
T2 sequence (P51532 whole entry): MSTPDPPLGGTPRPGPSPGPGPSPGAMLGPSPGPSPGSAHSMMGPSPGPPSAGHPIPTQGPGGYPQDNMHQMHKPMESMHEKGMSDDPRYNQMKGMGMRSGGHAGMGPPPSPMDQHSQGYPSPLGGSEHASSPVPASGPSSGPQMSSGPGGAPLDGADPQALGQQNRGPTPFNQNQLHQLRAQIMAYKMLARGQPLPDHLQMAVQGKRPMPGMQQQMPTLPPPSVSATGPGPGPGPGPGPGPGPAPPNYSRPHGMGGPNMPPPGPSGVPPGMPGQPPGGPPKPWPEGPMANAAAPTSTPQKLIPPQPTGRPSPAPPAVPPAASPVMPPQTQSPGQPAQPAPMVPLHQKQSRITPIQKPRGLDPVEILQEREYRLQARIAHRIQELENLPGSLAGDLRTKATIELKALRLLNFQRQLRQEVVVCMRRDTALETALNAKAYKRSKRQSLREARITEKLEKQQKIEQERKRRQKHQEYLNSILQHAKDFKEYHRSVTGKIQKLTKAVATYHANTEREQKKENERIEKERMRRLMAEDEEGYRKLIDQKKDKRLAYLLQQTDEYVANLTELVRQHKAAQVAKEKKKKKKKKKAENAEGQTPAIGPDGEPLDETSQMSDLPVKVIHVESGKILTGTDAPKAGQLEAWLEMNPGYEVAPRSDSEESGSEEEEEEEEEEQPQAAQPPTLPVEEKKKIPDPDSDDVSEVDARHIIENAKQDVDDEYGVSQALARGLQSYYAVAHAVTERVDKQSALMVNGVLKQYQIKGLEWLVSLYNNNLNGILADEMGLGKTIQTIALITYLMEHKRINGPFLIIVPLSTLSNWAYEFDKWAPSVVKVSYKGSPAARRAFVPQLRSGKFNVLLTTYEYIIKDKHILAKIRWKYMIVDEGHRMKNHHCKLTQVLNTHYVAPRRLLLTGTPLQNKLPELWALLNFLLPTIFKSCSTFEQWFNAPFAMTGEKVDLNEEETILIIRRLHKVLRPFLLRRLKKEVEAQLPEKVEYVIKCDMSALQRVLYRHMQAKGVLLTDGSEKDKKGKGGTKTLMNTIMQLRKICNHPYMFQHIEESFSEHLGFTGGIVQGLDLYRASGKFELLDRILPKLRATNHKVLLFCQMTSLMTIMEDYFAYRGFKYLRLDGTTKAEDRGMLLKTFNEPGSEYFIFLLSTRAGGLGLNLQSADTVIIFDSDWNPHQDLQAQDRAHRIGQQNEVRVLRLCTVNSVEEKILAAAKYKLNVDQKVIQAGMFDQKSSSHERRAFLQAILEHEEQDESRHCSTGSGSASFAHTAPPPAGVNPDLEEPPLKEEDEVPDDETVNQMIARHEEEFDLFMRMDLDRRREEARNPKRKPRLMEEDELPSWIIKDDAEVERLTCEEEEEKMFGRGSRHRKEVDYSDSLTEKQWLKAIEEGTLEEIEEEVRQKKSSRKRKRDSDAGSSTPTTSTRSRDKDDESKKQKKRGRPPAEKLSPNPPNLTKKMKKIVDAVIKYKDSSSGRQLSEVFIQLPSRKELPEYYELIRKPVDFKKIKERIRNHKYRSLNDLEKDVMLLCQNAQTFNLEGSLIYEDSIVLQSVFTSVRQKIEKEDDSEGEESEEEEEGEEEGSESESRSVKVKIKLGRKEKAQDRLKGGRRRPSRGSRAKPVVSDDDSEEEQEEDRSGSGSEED
How it was run: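 MV4-11 cells treated with compound for 24 h, lysed in RIPA with protease/phosphatase inhibitors, and SMARCA2 and SMARCA4 (BRG1) levels assessed by Western blot with β-actin loading control and LI-COR fluorescent read-out. Maximal degradation (Dmax %) after 24 h binned into letter codes.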

SMARCA2 [2] = biological target: T1, SMARCA2; assay: MSD SMARCA2 degradation in NCI-H1299 cell line (24 h); design: HC: NCI-H1299 cells treated with DMSO; host or cells: NCI-H1299; details: for Dmax: NCI-H1299, NCI-H1299 cells; for DC50: NCI-H1299 cells, read-out: SMARCA2 MSD H1299 degradation 24 h: External Abs-DC50
How it was run: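 NCI-H1299 cells treated 24 h with a 3-fold, 9-point compound dilution series, then lysed in RIPA with protease inhibitor. SMARCA2 in lysate-coated MSD plates detected with rabbit anti-SMARCA2 (0.3 ug/ml) and SULFO-TAG secondary. Relative SMARCA2 level normalized between DMSO-treated H1299 cells and SMARCA2-negative A2780 cells; Dmax % binned A–D.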

T1 sequence (P51531 whole entry): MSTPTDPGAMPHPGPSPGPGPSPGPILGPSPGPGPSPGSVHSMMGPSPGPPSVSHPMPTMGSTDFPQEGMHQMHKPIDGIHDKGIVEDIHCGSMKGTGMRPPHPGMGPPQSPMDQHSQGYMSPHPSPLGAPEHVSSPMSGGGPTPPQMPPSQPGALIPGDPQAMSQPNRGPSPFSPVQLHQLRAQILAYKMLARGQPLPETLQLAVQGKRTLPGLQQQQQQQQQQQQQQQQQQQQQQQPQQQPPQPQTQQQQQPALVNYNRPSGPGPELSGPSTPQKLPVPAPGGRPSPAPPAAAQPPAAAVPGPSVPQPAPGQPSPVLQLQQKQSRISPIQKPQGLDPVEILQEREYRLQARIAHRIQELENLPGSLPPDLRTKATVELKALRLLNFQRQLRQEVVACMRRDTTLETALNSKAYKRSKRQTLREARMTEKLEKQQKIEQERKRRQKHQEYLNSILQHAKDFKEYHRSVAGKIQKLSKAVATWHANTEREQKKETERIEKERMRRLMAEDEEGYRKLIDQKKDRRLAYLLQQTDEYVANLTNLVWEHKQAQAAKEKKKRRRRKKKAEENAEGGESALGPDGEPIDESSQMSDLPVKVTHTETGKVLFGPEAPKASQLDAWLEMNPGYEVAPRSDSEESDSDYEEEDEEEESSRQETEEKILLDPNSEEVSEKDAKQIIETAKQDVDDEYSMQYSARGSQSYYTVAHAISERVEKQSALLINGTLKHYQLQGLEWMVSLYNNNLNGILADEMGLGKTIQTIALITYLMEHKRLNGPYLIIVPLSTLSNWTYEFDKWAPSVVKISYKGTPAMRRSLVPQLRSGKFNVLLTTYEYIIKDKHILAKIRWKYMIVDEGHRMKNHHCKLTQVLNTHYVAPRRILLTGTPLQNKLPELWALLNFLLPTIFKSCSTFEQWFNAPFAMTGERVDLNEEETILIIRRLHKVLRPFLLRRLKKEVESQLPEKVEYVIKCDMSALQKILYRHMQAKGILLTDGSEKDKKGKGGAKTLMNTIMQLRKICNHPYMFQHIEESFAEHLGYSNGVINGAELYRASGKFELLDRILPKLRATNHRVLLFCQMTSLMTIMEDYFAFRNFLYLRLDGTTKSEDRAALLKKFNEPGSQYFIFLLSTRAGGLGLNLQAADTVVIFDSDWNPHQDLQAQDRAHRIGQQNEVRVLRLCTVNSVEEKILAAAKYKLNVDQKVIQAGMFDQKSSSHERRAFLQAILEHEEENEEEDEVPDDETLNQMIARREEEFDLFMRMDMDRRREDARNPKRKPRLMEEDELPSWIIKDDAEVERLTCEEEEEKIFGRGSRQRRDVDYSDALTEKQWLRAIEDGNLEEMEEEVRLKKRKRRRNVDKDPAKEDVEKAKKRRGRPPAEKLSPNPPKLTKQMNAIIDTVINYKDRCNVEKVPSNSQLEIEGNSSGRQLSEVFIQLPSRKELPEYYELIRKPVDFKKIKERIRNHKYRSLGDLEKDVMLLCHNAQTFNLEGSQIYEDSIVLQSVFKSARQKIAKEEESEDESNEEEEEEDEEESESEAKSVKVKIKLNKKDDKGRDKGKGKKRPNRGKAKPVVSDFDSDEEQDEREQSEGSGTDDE

Row | SMILES | Dmax (SMARCA2 [1]) [%] | DC50 (SMARCA2 [1]) [nM] | Dmax (SMARCA4) [%] | DC50 (SMARCA4) [nM] | Dmax (SMARCA2 [2]) [%] | DC50 (SMARCA2 [2]) [nM]
1 | Cn1c(=O)n(C2CCC(=O)NC2=O)c2ccc(C3CCC(N4CCC(c5cnc(N6C7CCC6CN(c6cc(-c8ccccc8O)nnc6N)C7)nc5)CC4)CC3)cc21 (stereo not shown) [I-290] | > 90 | < 100 | > 90 | < 100 | > 90 | < 100
2 | Cc1ncsc1-c1ccc(CNC(=O)[C@@H]2C[C@@H](O)CN2C(=O)[C@@H](NC(=O)N2CCC(c3cnc(N4C5CCC4CN(c4cc(-c6ccccc6O)nnc4N)C5)nc3)CC2)C(C)(C)C)cc1 [I-448] | > 90 | 100 to 500 | > 90 | < 100 | 70 to 90 | 100 to 500
3 | Cc1ncsc1-c1ccc(CNC(=O)[C@@H]2C[C@@H](O)CN2C(=O)[C@@H](NC(=O)CCN2CCC(c3cnc(N4C5CCC4CN(c4cc(-c6ccccc6O)nnc4N)C5)nc3)CC2)C(C)(C)C)cc1 [I-449] | < 50 | > 1000 | < 50 | 100 to 500 | < 50 | 100 to 500
4 | Cc1ncsc1-c1ccc(CNC(=O)[C@@H]2C[C@@H](O)CN2C(=O)[C@@H](NC(=O)CN(C)Cc2ccc(N3CCN(c4cc(-c5ccccc5O)nnc4N)CC3)cc2)C(C)(C)C)cc1 [I-462] | 70 to 90 | 501 to 1000 | < 50 | > 1000 | 70 to 90 | 501 to 1000
5 | NCC#Cc1nccc(N2C3CCC2CN(c2cc(-c4ccccc4O)nnc2N)C3)n1 [I-534, 2-[6-amino-5-[8-[2-(3-aminoprop-1-ynyl)pyrimidin-4-yl]-3,8-diazabicyclo[3.2.1]octan-3-yl]pyridazin-3-yl]phenol] | < 50 | > 1000 | 70 to 90 | > 1000 | > 90 | 100 to 500
6 | Cn1c(=O)n(C2CCC(=O)NC2=O)c2ccc(CCCN3CCN(c4cnc(N5C6CCC5CN(c5cc(-c7ccccc7O)nnc5N)C6)nc4)CC3)cc21 (stereo not shown) [I-285] | > 90 | < 100 | > 90 | < 100 | > 90 | < 100
7 | Nc1nnc(-c2ccccc2O)cc1N1CC2CCC(C1)N2c1ncc(C2CCN(CCCCCCCCCNC(=O)COc3ccc4c(c3)CCCN4C(=O)CCl)CC2)cn1 [I-525] | < 50 | > 1000 | 50 to 70 | > 1000 |  | 
8 | Cc1ncsc1-c1ccc(CNC(=O)[C@@H]2C[C@@H](O)CN2C(=O)[C@@H](NC(=O)N2CCC(N3CCC(c4cnc(N5C6CCC5CN(c5cc(-c7ccccc7O)nnc5N)C6)nc4)CC3)CC2)C(C)(C)C)cc1 [I-350, 4-(2-(3-(3-amino-6-(2-hydroxyphenyl)pyridazin-4-yl)-3,8-diazabicyclo [3.2.1]octan-8-yl)pyrimidin-5-yl)-N—((S)-1-((2S,4R)-4-hydroxy-2-((4-(4-methylthiazol-5-yl)benzyl)carbamoyl)pyrrolidin-1-yl)-3,3-dimethyl-1-oxobutan-2-yl)-[1,4′-bipiperidine]-1′-carboxamide] | < 50 | > 1000 | < 50 | > 1000 |  | 
9 | Cc1ncsc1-c1ccc(CNC(=O)[C@@H]2C[C@@H](O)CN2C(=O)[C@@H](NC(=O)N2CCN(C(=O)c3cnc(N4C5CCC4CN(c4cc(-c6ccccc6O)nnc4N)C5)nc3)CC2)C(C)(C)C)cc1 [I-343] | < 50 | > 1000 | > 90 | 100 to 500 |  | 
10 | Cc1ncsc1-c1ccc(CNC(=O)[C@@H]2C[C@@H](O)CN2C(=O)[C@@H](NC(=O)N[C@H]2CC[C@H](c3cnc(N4C5CCC4CN(c4cc(-c6ccccc6O)nnc4N)C5)nc3)CC2)C(C)(C)C)cc1 [I-333] | < 50 | > 1000 | > 90 | < 100 |  | 
11 | Cc1ncsc1-c1ccc(CNC(=O)[C@@H]2C[C@@H](O)CN2C(=O)[C@@H](NC(=O)c2ccc(-c3ccc(N4CCC(Cn5cc(-c6cc(-c7ccccc7O)nnc6N)cn5)CC4)cc3)cc2)C(C)(C)C)cc1 [I-353] | < 50 | > 1000 | 70 to 90 | > 1000 |  | 
12 | Cc1ncsc1-c1ccc(CNC(=O)[C@@H]2C[C@@H](O)CN2C(=O)[C@@H](NC(=O)C2(F)CC2)C2CCC(N(C)CCCc3cnc(N4C5CCC4CN(c4cc(-c6ccccc6O)nnc4N)C5)nc3)CC2)cc1 (stereo partly shown) [I-518] | < 50 | > 1000 | 50 to 70 | 100 to 500 |  | 
13 | Cc1ncsc1-c1ccc(CNC(=O)[C@@H]2C[C@@H](O)CN2C(=O)[C@@H](NC(=O)COCCCc2cnc(N3C4CCC3CN(c3cc(-c5ccccc5O)nnc3N)C4)nc2)C(C)(C)C)cc1 [I-357] | > 90 | 100 to 500 | > 90 | < 100 |  | 
14 | Cn1c(=O)n(C2CCC(=O)NC2=O)c2ccc(C3CC4(C3)CC(N3CCC(c5cnc(N6C7CCC6CN(c6cc(-c8ccccc8O)nnc6N)C7)nc5)CC3)C4)cc21 (single isomer, unassigned) [I-536 (P3), 3-(5-(6-(4-(2-(3-(3-amino-6-(2-hydroxyphenyl)pyridazin-4-yl)-3,8-diazabicyclo[3.2.1]octan-8-yl)pyrimidin-5-yl)piperidin-1-yl)spiro[3.3]heptan-2-yl)-3-methyl-2-oxo-2,3-dihydro-1H-benzo[d]imidazol-1-yl)piperidine-2,6-dione] |  | < 100 |  | < 100 |  | 
15 | Cc1ncsc1-c1ccc(CNC(=O)[C@@H]2C[C@@H](O)CN2C(=O)[C@@H](NC(=O)[C@H]2CC[C@@H](N3CCC(c4cnc(N5C6CCC5CN(c5cc(-c7ccccc7O)nnc5N)C6)nc4)CC3)CC2)C(C)(C)C)cc1 [I-347] | 70 to 90 | 100 to 500 | 50 to 70 | > 1000 |  | 
16 | Cc1ncsc1-c1ccc(CNC(=O)[C@@H]2C[C@@H](O)CN2C(=O)[C@@H](NC(=O)CCN(C)CC#Cc2cnc(N3C4CCC3CN(c3cc(-c5ccccc5O)nnc3N)C4)nc2)C(C)(C)C)cc1 [I-496] | 70 to 90 | 501 to 1000 | > 90 | < 100 |  | 
17 | Cc1ncsc1-c1ccc(CNC(=O)[C@@H]2C[C@@H](O)CN2C(=O)[C@@H](NC(=O)CN(C)CC#Cc2cnc(N3C4CCC3CN(c3cc(-c5ccccc5O)nnc3N)C4)nc2)C(C)(C)C)cc1 [I-495] | 70 to 90 | 100 to 500 | > 90 | < 100 | 70 to 90 | 100 to 500
18 | Cc1ncsc1-c1ccc(CNC(=O)[C@@H]2C[C@@H](O)CN2C(=O)[C@@H](NC(=O)c2ccc(CCCCCN3CCC(Cn4cc(-c5cc(-c6ccccc6O)nnc5N)cn4)CC3)cc2)C(C)(C)C)cc1 [I-505] | > 90 | 100 to 500 | > 90 | 100 to 500 |  | 
19 | Cc1ncsc1-c1ccc(CNC(=O)[C@@H]2C[C@@H](O)CN2C(=O)[C@@H](NC(=O)C2CCN(Cc3cnc(N4C5CCC4CN(c4cc(-c6ccccc6O)nnc4N)C5)nc3)CC2)C(C)(C)C)cc1 [I-384] |  | 100 to 500 |  | < 100 |  | 
20 | Cn1c(=O)n(C2CCC(=O)NC2=O)c2ccc([C@H]3CC[C@H](N4CCC(c5nccc(N6C7CCC6CN(c6cc(-c8ccccc8O)nnc6N)C7)n5)CC4)CC3)cc21 (stereo partly shown) [I-280, 3-(5-((1r,4r)-4-(4-(4-(3-(3-amino-6-(2-hydroxyphenyl)pyridazin-4-yl)-3,8-diazabicyclo[3.2.1]octan-8-yl)pyrimidin-2-yl)piperidin-1-yl)cyclohexyl)-3-methyl-2-oxo-2,3-dihydro-1H-benzo[d]imidazol-1-yl)piperidine-2,6-dione] | > 90 | < 100 | > 90 | < 100 |  | 
21 | Cc1ncsc1-c1ccc(CNC(=O)[C@@H]2C[C@@H](O)CN2C(=O)[C@@H](NC(=O)Cc2ccc(N3CCC(n4cc(-c5cc(-c6ccccc6O)nnc5N)cn4)CC3)cc2)C(C)(C)C)cc1 [I-516] | < 50 | > 1000 | < 50 | > 1000 |  | 
22 | Cc1ncsc1-c1ccc(CNC(=O)[C@@H]2C[C@@H](O)CN2C(=O)[C@@H](NC(=O)CCCCN2CCC[C@H](Cn3cc(-c4cc(-c5ccccc5O)nnc4N)cn3)C2)C(C)(C)C)cc1 [I-480] | < 50 | > 1000 | < 50 | > 1000 |  | 
23 | Cc1ncsc1-c1ccc(CNC(=O)[C@@H]2C[C@@H](O)CN2C(=O)[C@@H](NC(=O)[C@H]2C[C@H](N3CCC(c4cnc(N5C6CCC5CN(c5cc(-c7ccccc7O)nnc5N)C6)nc4)CC3)C2)C(C)(C)C)cc1 [I-356] | 70 to 90 | 100 to 500 | > 90 | < 100 |  | 
24 | Cc1ncsc1-c1ccc(CNC(=O)[C@@H]2C[C@@H](O)CN2C(=O)[C@@H](NC(=O)c2ccc(N3CCC(n4cc(-c5cc(-c6ccccc6O)nnc5N)cn4)CC3)cc2)C(C)(C)C)cc1 [I-515] | < 50 | > 1000 | > 90 | < 100 |  | 

From patent US12624044B2, “SMARCA degraders and uses thereof” (Kymera Therapeutics, Inc., priority 2019, dated 2026)
